Measurements published in patent US20120014911A1, “Regulators of the Interferon-Alpha Receptor 1 (IFNAR1) Chain of the Interferon Receptor” (priority 2009, published 2012).
Counter-ions that a name gives are not always drawn. Like-named read-outs stand apart in the source and are kept apart here.

Assays:
IFNAR1 [1] = tested on: IFNAR1
[2] = tested on: ligand-inducible IFNAR1 degron kinase activity; assay: Phosphorylation-binding assay: GST-IFNAR1 phosphorylated by CK1α-depleted lysates of IFN-α-treated cells, then binding of 35S-labeled β-Trcp2; type: biochemical, human; details: inhibitor added in vitro: H89 200 nM, BAY43-9006 50 nM, Bis-I 25 nM, Gö6976 25 nM, LY294002 1.5 μM, SP600125 100 nM, D4476 400 nM, SB203580 100 nM
Description: For some binding assays, the lysates from 293T cells (treated for various tunes with IFN-α, 2000 IU/mL) were depleted of CK1α (as described previously (Liu, et al., 2009, Mal Cell Biol 29(24):6401-12) were incubated with GST-IFNAR1 proteins (wild type or S535,539A mutant that migrates slower on SDS-PAGE due to the presence of four additional amino acids in the linker), ATP and kinase inhibitors (as indicated) for 30 min at 30° C. After that, GST-IFNAR1 were purified and incubated with in vitro translated and 35S-methionine-labeled 3-Trcp2 for 1 h at 4° C.; this binding was later analyzed by autoradiography and Coomassie staining. In vitro serine phosphorylation of GST-IFNAR1 (analyzed by autoradiography or IB with pS535 antibody) by cell extracts or PKD preparations and tyrosine phosphorylation of GST-PKD2 by Tyk2 was carried out and analyzed as described elsewhere herein.
For other binding assays, the lysates from 293T cells (treated for various times with IFN-α, 2000 IU/mL) underwent two rounds of immunodepletion of CK1α as described elsewhere (Liu, et al., 2009, Mol Cell Biol 29(24):6401-12). GST-IFNAR1 proteins (wild type or S535,539A mutant that migrates slower on SDS-PAGE due to the presence of four additional amino acids in the linker (Liu et al., 2009, Cell Host Microbe 5(1):72-83)) were expressed and purified from bacterial cells using glutathione Sepharose. Purified bacterial proteins (2 μg) were incubated in the presence of CK1α-depleted cell lysates (5 μg), unlabeled ATP (0.5 mM) in total volume of 20 μL (containing 25 mM Tris-HCL pH 7.5, 5 mM MgCl2, 100 mM KCl, 1 mM EGTA, 1 mM Na3VO4, 0.1 mM DTT and 3.5% glycerol) for 30 min at 30° C. When indicated, the following kinase inhibitors were added to the reaction in I pi, of DMSO to the final concentration indicated: H89 (200 nM), BAY43-9006 (50 nM), Bis-I (25 nM), Gö6976 (25 nM), LY294002 (1.5 μM), SP600125 (100 nM), D4476 (400 nM), SB203580 (100 nM). The reactions were stopped by placing the tubes on ice and adding 150 μL of ice-cold binding buffer (PBS supplemented with 0.1% NP40 and 50 mM NaF) and incubated with glutathione Sepharose beads (20 μL) for 2 h at 4° C. The beads were then washed three times with 0.5 mL of binding buffer and incubated with 2 μL of in vitro translated and 35S-methionine-labeled13-Trcp2 for 1 h at 4° C. Beads were then washed three times with 1 mL of binding buffer, and the proteins were eluted using Laemmli buffer, resolved by SDS-PAGE, and analyzed by autoradiography and Coomassie staining.

[3] = tested on: IFNAR1 Ser535 phosphorylation; type: cell-based, human
Stat1 = Stat1 tyrosine phosphorylation in response to IFN-α, immunoblot; type: cell-based, human
[4] = tested on: IFNAR1 Ser535 phosphorylation; type: cell-based, human; remark: listed apart in the source
IFNAR1 [5] = type: cell-based, human
[6] = tested on: IFNAR1 Ser532 phosphorylation; type: cell-based, human
[7] = tested on: IFNAR1 Ser535 phosphorylation; assay: IFN-α-induced Ser535 (degron) phosphorylation of IFNAR1 in cells, IP-immunoblot with anti-pS535; type: cell-based, human
Description: Immunoprecipitation and immunoblotting procedures are described elsewhere (Fuchs et al, 1999, Oncogene 18:2039-2046). Protein degradation was carried out by cycloheximide (CHX, used at 20 μg/ml) chase. IFNAR1 internalization assay was carried out using the Fluorescence-based assay as described elsewhere (Kumar et al., 2007, J Cell Biol 179:935-950). BAY 43-9006 was obtained as a gift. Recombinant human IFN-a2 (Roferon) was purchased from Roche. Other reagents or inhibitors were purchased from commercial vendors.
Antibodies against Flag, GST and j3-actin (Sigma), HA (12CA, Roche), CK1α, PICD1/2 (PKCμ), PKD3 (PKCν), Tyk2, intracellular domain of hIFNAR1 and PKR, (Santa Cruz), anti-pan-phospho-tyrosine (4G10), phospho-Stat1 and Stat1 (Cell signaling), phospho-S710 of PKD2 (Biosource), PKD2 (Bethyl Laboratories), mIFNAR1 (Leinco) and ubiquitin (FK2, Biomol) were purchased. AA3, GB8 and EAl2 antibodies which recognize endogenous IFNAR1 (Goldman et al., 1999) and antibodies against IFNAR1 phosphorylated on Ser535 (pS535; (Kumar et al., 2004, J Biol Chem 279:46614-46620)) were described previously. Secondary antibodies conjugated to horseradish peroxidase were purchased from Chemicon and LI-COR. Immunoprecipitation and immunoblotting procedures are described elsewhere (Fuchs et al, 1999, Oncogene 18:2039-2046). Protein degradation was carried out by cycloheximide (CHX) chase in the presence of CHX (20 μg/ml). Immunoblot detection and quantification were carried out using the LI-COR's Odyssey Infrared Imaging System.

protein kinase D (PKD) = details: literature (Gschwendt et al., 1996; Sharlow et al., 2008); cited from earlier work
PKD2 [8] = target: T1, PKD2 (Homo sapiens, UniProt Q9BZL6); assay: In vitro phosphorylation of GST-IFNAR1 on Ser535 by purified GST-PKD2; type: biochemical; set-up: made in house; host or cells: 293T cells (human), transient expression, glutathione pull-down; details: Gö6976 20-200 nM
T1 sequence (Q9BZL6 1-878): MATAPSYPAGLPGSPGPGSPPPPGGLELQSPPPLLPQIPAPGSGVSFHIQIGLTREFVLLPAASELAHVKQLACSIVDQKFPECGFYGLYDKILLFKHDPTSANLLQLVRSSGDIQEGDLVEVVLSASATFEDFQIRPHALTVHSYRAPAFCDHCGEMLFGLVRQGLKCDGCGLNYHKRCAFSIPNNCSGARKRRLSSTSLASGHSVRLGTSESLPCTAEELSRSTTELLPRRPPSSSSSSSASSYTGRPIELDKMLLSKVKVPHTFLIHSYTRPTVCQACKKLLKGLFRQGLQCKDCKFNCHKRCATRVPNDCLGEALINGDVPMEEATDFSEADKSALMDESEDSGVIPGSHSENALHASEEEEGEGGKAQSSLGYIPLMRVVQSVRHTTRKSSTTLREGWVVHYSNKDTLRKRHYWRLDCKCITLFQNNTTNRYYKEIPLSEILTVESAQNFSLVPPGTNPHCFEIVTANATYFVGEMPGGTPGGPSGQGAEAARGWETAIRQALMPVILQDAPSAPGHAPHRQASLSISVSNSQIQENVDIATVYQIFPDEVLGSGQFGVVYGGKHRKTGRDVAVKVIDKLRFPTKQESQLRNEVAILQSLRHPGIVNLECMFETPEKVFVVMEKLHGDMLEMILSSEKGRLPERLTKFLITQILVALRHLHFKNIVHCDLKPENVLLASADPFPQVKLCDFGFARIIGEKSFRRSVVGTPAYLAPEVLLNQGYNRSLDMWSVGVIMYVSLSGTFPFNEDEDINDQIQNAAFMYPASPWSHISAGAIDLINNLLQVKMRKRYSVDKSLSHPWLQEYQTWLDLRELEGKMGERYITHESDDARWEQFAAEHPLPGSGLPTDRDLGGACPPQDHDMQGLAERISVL
Description: In vitro phosphorylation of GST-IFNAR1 by cell extracts or PKD preparations (via immunopurification or GST pulldown) was carried out in kinase buffer (50 mM Tris-HCl pH 7.4, 10 mM MgC12, and 2 mM DTT) with either 0.2 mM of unlabeled ATP or 10 μCi of γ-32P ATP for 20 min at 30° C. The products of this reaction were separated by SDS-PAGE and analyzed either by immunoblotting using anti-pS535 antibody or by autoradiography.

PKD2 [9] = target: T1, PKD2; assay: Sangivamycin inhibition of PKD2 (FIGS. 37-38)
IFN signaling = assay: Sangivamycin effect on IFN signaling (FIGS. 37-38)

OO [hydrogen peroxide]
phosphorylation of endogenous IFNAR1 on Ser535 in the absence of IFN-α (IFNAR1 [1]; HeLa cells): noticeably stimulated

C[S+]([O-])c1ccc(-c2nc(-c3ccncc3)c(-c3ccc(F)cc3)[nH]2)cc1 (centres unmarked) [SB203580]
recruitment of β-Trcp2 to GST-IFNAR1 (phosphorylation-binding assay) [2]: not inhibited

O=S(=O)(NCCNC/C=C/c1ccc(Br)cc1)c1cccc2cnccc12 [H89]
recruitment of β-Trcp2 to GST-IFNAR1 (phosphorylation-binding assay) [2]: noticeable inhibition

NC(=O)c1ccc(-c2nc(-c3ccc4c(c3)OCCO4)c(-c3ccccn3)[nH]2)cc1 [D4476]
recruitment of β-Trcp2 to GST-IFNAR1 (phosphorylation-binding assay) [2]: noticeable inhibition
Ser535 phosphorylation of IFNAR1 in response to TG [3]: noticeably attenuated
TG-induced phosphorylation of eIF2α [3]: comparable induction
eIF2a phosphorylation in VSV-infected cells [3]: without affecting
virus-induced S535 phosphorylation of IFNAR1 [3]: markedly attenuated
virus-induced downregulation of IFNAR1 [3]: markedly attenuated

VEGF
Stat1 phosphorylation in response to IFN-α (Stat1; human umbilical vein endothelial cells, VEGF 100 ng/ml 2 h, IFN-α 15 min): noticeably inhibits
phosphorylation of Flag-IFNAR1 on Ser535 (IFNAR1 [1]; U3A cells stably expressing Flag-IFNAR1, VEGF 100 ng/ml): increased
ubiquitination of IFNAR1 (IFNAR1 [1]; U3A-Flag-IFNAR1 cells, VEGF treatment): stimulated

C/C=C(/C)C(=O)O[C@H]1C(C)=C2[C@H]([C@@H]1OC(=O)CCCCCCC)[C@@](C)(OC(C)=O)C[C@H](OC(=O)CCC)[C@@]1(O)[C@H]2OC(=O)[C@@]1(C)O [thapsigargin]
tyrosine phosphorylation of Stat1 induced by IFN-α (Stat1; 293T cells pre-treated with TG 1 μM 4 h, IFNα 50 IU/ml 30 min): noticeably decreased
activation of PERK assessed via phosphorylation of eIF2α ([3]; 293T cells, TG 1 μM 30 min): caused activation of PERK
Ser535 phosphorylation of IFNAR1 in cells with wild type (WT) or catalytically inactive (KR) Tyk2 ([4]; 2fTGH-derived Tyk2 WT vs KR cells, 30 min): comparable levels
phosphorylation of endogenous IFNAR1 on Ser535 in the absence of IFN ([4]; 293T cells, TG 1 μM 30 min, DTT 5 mM 30 min): stimulated
half life of IFNAR1 (IFNAR1 [5]; 293T cells treated with cycloheximide, TG 1 μM): decreased
levels of IFNAR1 (IFNAR1 [5]; human 293T cells, TG 1 μM, within two hours, absence of IFN): decreased
ubiquitination of IFNAR1 (IFNAR1 [5]; human fibrosarcoma cells with WT or KR Tyk2 and 293T cells): induced
extent of ubiquitination of wild type IFNAR1 ([6]; Flag-IFNAR1 in 293T cells, TG 1 μM): noticeably increased
phosphorylation of endogenous IFNAR1 on Ser532 and Ser535 ([6]; HeLa cells, TG 1 μM 30 min): led to phosphorylation of endogenous IFNAR1 on both Ser532 and Ser535

Cn1c2ccccc2c2c3c(c4c5ccccc5n(CCC#N)c4c21)CNC3=O [Gö6976]
recruitment of β-Trcp2 to GST-IFNAR1 (phosphorylation-binding assay) [2]: dramatic inhibition
induction of Ser535 phosphorylation of Flag-IFNAR1 by IFN-α ([7]; U3A cells stably expressing Flag-IFNAR1, inhibitor pre-treatment): noticeably decreased
basal Ser535 (degron) phosphorylation of overexpressed IFNAR1 ([7]; U3A cells stably expressing Flag-IFNAR1, no ligand): neither the PKD inhibitor Gö6976 nor siRNA against PKD2 decreases
inhibition of / specificity against PKD (protein kinase D (PKD)): shown to inhibit
in vitro phosphorylation of GST-IFNAR1 on Ser535 by GST-PKD2 (PKD2 [8]): decreased the efficacy of IFNAR1 phosphorylation in a dose dependent manner

CN(C)CCCn1cc(C2=C(c3c[nH]c4ccccc34)C(=O)NC2=O)c2ccccc21 [Bis I, bisindolylmaleimide I]
recruitment of β-Trcp2 to GST-IFNAR1 (phosphorylation-binding assay) [2]: did not affect

CN [methylamine HCl]
thapsigargin-induced decrease of IFNAR1 levels (IFNAR1 [5]; 293T cells pre-treated with MA 20 mM 1 h): prevented

CNC(=O)c1cc(Oc2ccc(NC(=O)Nc3ccc(Cl)c(C(F)(F)F)c3)cc2)ccn1 [BAY 43-9006]
recruitment of β-Trcp2 to GST-IFNAR1 (phosphorylation-binding assay) [2]: not inhibited

NC(=O)c1cn([C@@H]2O[C@H](CO)[C@@H](O)[C@H]2O)c2ncnc(N)c12 [sangivamycin]
inhibition of PKD2 (PKD2 [9]): inhibits
efficiency of IFN signaling (IFN signaling): increases the efficiency of IFN signaling

NCCNS(=O)(=O)c1ccc(Cl)c2ccncc12 [CKI-7]
ligand-independent Ser535 phosphorylation of Flag-IFNAR1 [3]: decreased
